Holding throughout (type): in vivo
In one experiment the test system is Myzus persicae (aphids). Briefly: Contact test on aphids (MP), Chinese Cabbage leaf, mortality. The conditions noted are these: 72 h, 500 ppm, contact, 3 days, read-out: MP grading of mortality. The method in brief: (§1)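 Compound dissolved in acetone, diluted with water containing 0.01% by weight wetting agent to 500, 250 or 100 ppm. Pests held on host plant or foodstuff; pests and/or medium treated. Mortality scored one to three days later as grade A (80-100%), B (50-79%) or C (<50%) mortality or knockdown.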

Experiment [1] has as its system Diabrotica balteata (rootworm larvae). Briefly: Residual test on rootworm larvae (DB), Filter paper/maize seed, mortality. The conditions noted are these: 48 h, 500 ppm, residual, 2 days, read-out: DB grading of mortality. The method in brief:
as §1

In experiment [2] the test system is Musca domestica (houseflies - adults). Briefly: Knockdown test on houseflies - adults (MD/KD), Cotton wool/sugar. The settings on record: 500 ppm, 4 hours, read-out: MD/KD grading of knockdown. The method in brief: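 Adult houseflies exposed to the compound at 500, 250 or 100 ppm in acetone/water with 0.01% wetting agent, on a cotton wool/sugar medium. Knockdown and mortality assessed, graded A (80-100%), B (50-79%) or C (<50%).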

The subject of experiment [3] is Tetranychus urticae (spider mites - adult). Kind of experiment: Contact test on spider mites - adult (TUa), French bean leaf, mortality. The settings on record: 72 h, 500 ppm, contact, 3 days, read-out: TUa grading of mortality. The method in brief: as §1
Experiment [4] deals with Blattella germanica (cockroach nymphs). Kind of experiment: Contact test on cockroach nymphs (BG/C), Plastic pot, mortality. The conditions noted are these: 48 h, 500 ppm, contact, 2 days, read-out: BG/C grading of mortality. The method in brief:
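Cockroach nymphs and/or their medium were treated with aqueous preparations at 500, 250 or 100 ppm (acetone solution diluted in water with 0.01% Lissapol NX wetting agent). Mortality or knockdown was assessed typically 1–3 days later and graded A (80–100%), B (50–79%) or C (<50%).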

The test system of experiment [5] is Tetranychus urticae (spider mites - ova). Briefly: Contact test on spider mites - ova (TUe), French bean leaf, mortality. The conditions noted are these: 144 h, 500 ppm, contact, 6 days, read-out: TUe grading of mortality. The method in brief:
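Graded read-out: A 80-100%, B 50-79%, C below 50% mortality or knockdown, assessed usually 1-3 days post-treatment. Liquid preparations at 500, 250 or 100 ppm by weight, from acetone solution diluted in water with 0.01% wetting agent, applied to pests and/or their host plant or food medium.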

Experiment [6] concerns Heliothis virescens (tobacco budworm - larvae). Kind of experiment: Residual test on tobacco budworm larvae (HV), Cotton leaf, mortality. The conditions noted are these: 48 h, read-out: HV grading of mortality. The method in brief: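 Product in acetone diluted with water containing 0.01% Lissapol NX, at 500, 250 or 100 ppm; pests and/or host medium (here cotton leaf) treated. Mortality scored one to three days later, graded A (80-100%), B (50-79%), C (<50%).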

The test system of experiment [7] is Nephotettix cincticeps (green leaf hopper - nymphs). Briefly: Contact test on green leaf hopper nymphs (NC), Rice plant, mortality. The settings on record: 48 h, 500 ppm, contact, 2 days, read-out: NC grading of mortality. The method in brief: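 Product dissolved in acetone, diluted in water with 0.01% wetting agent to 500, 250 or 100 ppm; nymphs and/or host rice plants treated. Mortality or knockdown assessed 1–3 days later, graded A (80-100%), B (50-79%), C (<50%).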

Experiment [8] deals with Spodoptera exigua (lesser army worm - larvae). Briefly: Residual test on lesser army worm larvae (SP), Cotton leaf, mortality. The settings on record: 48 h, 500 ppm, residual, 2 days, read-out: SP grading of mortality. The method in brief: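 Product dissolved in acetone and diluted in water with 0.01% wetting agent to 500, 250 or 100 ppm; larvae and/or cotton leaf host treated. Mortality or knockdown scored one to three days later and graded A (80-100%), B (50-79%) or C (<50%).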

Experiment [9] concerns Musca domestica (houseflies - adults). Kind of experiment: Contact test on houseflies - adults (MD), Cotton wool/sugar, mortality. The conditions noted are these: 72 h, 500 ppm, contact, 3 days, read-out: MD grading of mortality. The method in brief: as §1

`CC(=O)OCc1c(F)c(F)c(COC(=O)C(c2cnc(C(C)(C)C)nc2)C(C)(C)C)c(F)c1F` (racemic) [Compound 166, 2,3,5,6-tetrafluoro-4-(acetyloxymethyl)benzyl (RS)-2-[2-(1,1-dimethylethyl)pyrimidin-5-yl]-3,3-dimethylbutanoate]: the mortality at 500 ppm in the experiment with Myzus persicae (aphids) is 80 to 100%; in experiment [1], 80 to 100%; in [3], 80 to 100%; in experiment [4] it was < 50%; in [5], 80 to 100%; in experiment [6], < 50%. The mortality at 500 ppm in [7] was 50 to 79%; in [8], 80 to 100%; in [9], < 50%. Also, the pest or weed control at 500 ppm in [2] is < 50%.

Take `CCOC(=O)c1c(F)c(F)c(COC(=O)C(c2cnc(C(C)(C)C)nc2)C(C)(C)C)c(F)c1F` (racemic) [Compound 170]: the mortality at 500 ppm with Myzus persicae (aphids) is < 50%; in experiment [1] it was < 50%; in experiment [3], 80 to 100%; in experiment [4] it was < 50%; in experiment [5], < 50%; in experiment [6], < 50%. Also, the mortality at 500 ppm in experiment [7] is 50 to 79%; in [8] it was 80 to 100%; in [9], < 50%. Further, the pest or weed control at 500 ppm in experiment [2] lay in the range of 50 to 79%.

For the compound `CC(C)SCc1c(F)c(F)c(COC(=O)C(c2cnc(C(C)(C)C)nc2)C(C)(C)C)c(F)c1F` (racemic) [Compound 174], the mortality at 500 ppm was 80 to 100% in the experiment with Myzus persicae (aphids); < 50% in experiment [1]; 80 to 100% in experiment [3]; < 50% in experiment [4]; < 50% in [5]; < 50% in experiment [6]. Besides, the mortality at 500 ppm in experiment [7] was 50 to 79%; in [8], < 50%; in [9] it was < 50%. In addition, the pest or weed control at 500 ppm in experiment [2] was < 50%.

In the case of `Cc1c(COC(=O)C(c2cnc(C(C)(C)C)nc2)C(C)(C)C)cccc1-c1ccccc1` (racemic) [Compound 3, 2-methyl-3-phenylbenzyl (RS)-2-[2-(1,1-dimethylethyl)pyrimidin-5-yl]-3,3-dimethylbutanoate], the mortality at 500 ppm is < 50% in the experiment with Myzus persicae (aphids); < 50% in [1]; 80 to 100% in [3]; < 50% in experiment [4]; 80 to 100% in experiment [5]; 50 to 79% in [6]. The mortality at 500 ppm in experiment [7] was 80 to 100%; in experiment [8] it was 80 to 100%; in experiment [9], < 50%. The pest or weed control at 500 ppm in [2] was < 50%.

Take `CC(C)C(=O)OCc1c(F)c(F)c(COC(=O)C(c2cnc(C(C)(C)C)nc2)C(C)(C)C)c(F)c1F` (racemic) [Compound 173, 4-[(2-methylpropionyl)oxymethyl]-2,3,5,6-tetrafluorobenzyl (RS)-2-[2-(1,1-dimethylethyl)pyrimidin-5-yl]-3,3-dimethylbutanoate]: the mortality at 500 ppm with Myzus persicae (aphids) was 80 to 100%; in [1] it was < 50%; in [3] it was 80 to 100%; in experiment [4] it was < 50%; in experiment [5], < 50%; in [6] it was 80 to 100%. Besides, the mortality at 500 ppm in [7] was 80 to 100%; in [8], 80 to 100%; in experiment [9], < 50%. Also, the pest or weed control at 500 ppm in experiment [2] was < 50%.

Consider `CC(C)(C)c1ncc(C(C(=O)OCc2ccc(F)c(Cc3ccccc3)c2)C(C)(C)C)cn1` (racemic) [Compound 18, 3-benzyl-4-fluorobenzyl (RS)-2-[2-(1,1-dimethylethyl)pyrimidin-5-yl]-3,3-dimethylbutanoate], for which the mortality at 500 ppm is 80 to 100% in the experiment on Myzus persicae (aphids); 80 to 100% in [1]; 80 to 100% in experiment [3]; < 50% in experiment [4]; < 50% in experiment [5]; 80 to 100% in experiment [6]. In addition, the mortality at 500 ppm in experiment [7] is 80 to 100%; in experiment [8], 80 to 100%; in experiment [9], < 50%. The pest or weed control at 500 ppm in experiment [2] is 80 to 100%.

Consider `Cc1ncc(C(C(=O)OC(C)c2cccc(Oc3ccccc3)n2)C(C)(C)C)cn1` (racemic) [Compound 205, RS-1-(6-phenoxypyrid-2-yl)ethyl (RS)-2-(2-methylpyrimidin-5-yl)-3,3-dimethylbutanoate], for which the mortality at 500 ppm in the experiment with Myzus persicae (aphids) is 80 to 100%; in [1] it was < 50%; in [3], 80 to 100%; in [4] it was < 50%; in experiment [5] it was < 50%; in [6], 80 to 100%. Moreover, the results for the mortality at 500 ppm in experiment [7], in [8] and in experiment [9] were 80 to 100%, 80 to 100% and < 50%, respectively. The pest or weed control at 500 ppm in experiment [2] is < 50%.

Turning to `COCc1c(F)c(F)c(COC(=O)C(c2cnc(C(C)(C)C)nc2)C(C)(C)C)c(F)c1OC` (racemic) [Compound 217, 2,3,6-trifluoro-5-methoxy-4-(methmethyl)-benzyl (RS)-2-[2-(1,1-dimethylethyl)pyrimidin-5-yl]-3,3-dimethylbutanoate], the mortality at 500 ppm in the experiment with Myzus persicae (aphids) was 80 to 100%; in experiment [1] it was < 50%; in experiment [3], 80 to 100%; in [4], < 50%; in [5], < 50%; in experiment [6], 80 to 100%. Further, the mortality at 500 ppm in experiment [7], in experiment [8] and in [9] was 80 to 100% in each case. The pest or weed control at 500 ppm in experiment [2] was in the range of 80 to 100%.

As to `CC(C)(C)c1ncc(C(C(=O)OCc2cccc(Oc3ccc(Cl)cc3)c2)C(C)(C)C)cn1` (racemic) [Compound 180, 3-(4-chlorophenoxy)benzyl (RS)-2-[2-(1,1-dimethylethyl)pyrimidin-5-yl]-3,3-dimethylbutanoate], the mortality at 500 ppm in the experiment on Myzus persicae (aphids) was 80 to 100%; in [1], < 50%; in experiment [3], 80 to 100%; in experiment [4] it was < 50%; in experiment [5], < 50%; in [6], 80 to 100%. For the same compound, the mortality at 500 ppm in experiment [7], in [8] and in experiment [9] was 80 to 100% each time. The pest or weed control at 500 ppm in [2] is 80 to 100%.

With `CCC(C)(C)c1ncc(C(C(=O)OCc2c(F)c(F)c(COC)c(F)c2F)C(C)(C)C)cn1` (racemic) [Compound 61, 2,3,5,6-tetrafluoro-4-(methoxymethyl)benzyl (RS)-2-[2-(1,1-dimethylpropyl)pyrimidin-5-yl]-3,3-dimethylbutanoate], the mortality at 500 ppm with Myzus persicae (aphids) was 80 to 100%; in experiment [1], < 50%; in [3], 80 to 100%; in experiment [4], < 50%; in experiment [5] it was < 50%; in experiment [6] it was < 50%. The mortality at 500 ppm in experiment [7], in experiment [8] and in [9] was 80 to 100% in each case. In addition, in experiment [2], the pest or weed control at 500 ppm is 80 to 100%.

On to `CC(C)(C)c1ncc(C(C(=O)OCc2c(F)c(F)c(CC3CC3(Cl)Cl)c(F)c2F)C(C)(C)C)cn1` (racemic) [Compound 216, 4-[(2,2-dichlorocyclopropyl)methyl]-2,3,5,6-tetrafluorobenzyl (RS)-2-[2-(1,1-dimethylethyl)pyrimidin-5-yl]-3,3-dimethylbutanoate], for which the mortality at 500 ppm in the experiment on Myzus persicae (aphids) is < 50%; in [1], < 50%; in experiment [3] it was 80 to 100%; in experiment [4], < 50%; in experiment [5], < 50%; in experiment [6], < 50%. The mortality at 500 ppm in experiment [7] is 50 to 79%; in experiment [8] it was 50 to 79%; in experiment [9], < 50%. Further, in [2], the pest or weed control at 500 ppm is < 50%.

The values above are taken from US4962109A, “Insecticidally and acaricidally active pyrimidine esters and intermediates therefor” (Imperial Chemical Industries PLC, priority 1985, dated 1990).
